For this assay, the target named is purified human Factor XIa (Homo sapiens (Human), UniProt P03951). The assay can be described thus: Factor XIa Assay. It is filed as biochemical. How it is done: The effectiveness a of compound of the present invention as an inhibitor of Coagulation Factor XIa can be determined using a relevant purified serine protease, and an appropriate synthetic substrate. The rate of hydrolysis of the chromogenic or fluorogenic substrate by the relevant serine protease was measured both in the absence and presence of compounds of the present invention. Assays were conducted at room temperature or at 37° C. […] A decrease in the rate of fluorescence change in the presence of inhibitor is indicative of enzyme inhibition. Such methods are known to one skilled in the art. The results of this assay are expressed as the inhibitory constant, Ki.
Chain of purified human Factor XIa (P03951 whole entry, looked up): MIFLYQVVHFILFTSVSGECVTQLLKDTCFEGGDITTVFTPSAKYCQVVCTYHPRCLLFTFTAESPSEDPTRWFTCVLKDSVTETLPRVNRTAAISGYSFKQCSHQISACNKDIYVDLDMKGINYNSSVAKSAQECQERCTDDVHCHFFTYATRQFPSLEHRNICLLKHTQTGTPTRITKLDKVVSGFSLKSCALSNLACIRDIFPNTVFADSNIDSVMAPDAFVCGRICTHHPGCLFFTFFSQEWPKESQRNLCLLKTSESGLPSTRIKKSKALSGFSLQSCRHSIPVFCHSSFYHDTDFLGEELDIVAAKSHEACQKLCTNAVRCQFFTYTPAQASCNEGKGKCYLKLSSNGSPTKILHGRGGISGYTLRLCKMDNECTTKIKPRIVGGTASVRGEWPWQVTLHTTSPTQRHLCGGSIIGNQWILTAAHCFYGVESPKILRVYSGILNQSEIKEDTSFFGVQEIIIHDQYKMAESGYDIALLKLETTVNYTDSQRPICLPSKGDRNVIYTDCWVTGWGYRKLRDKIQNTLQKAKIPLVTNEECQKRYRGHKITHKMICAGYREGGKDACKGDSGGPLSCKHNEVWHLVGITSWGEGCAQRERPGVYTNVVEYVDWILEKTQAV
Chain of purified human Factor XIa (P03951 whole entry partner, looked up): as the sequence (P03951 whole entry, looked up) above
Factor XIa determinations were made in 50 mM HEPES buffer at pH 7.4 containing 150 mM NaCl, 5 mM CaCl2, and 0.1% PEG 8000 (polyethylene glycol; J T Baker or Fisher Scientific). Determinations were made using purified human Factor XIa at a final concentration of 40 pM (Sekisui Diagnostics) and the synthetic substrate, Z-Gly-Pro-Arg-AFC, TFA salt (Sigma #C0980) at a concentration of 100 μM.
Activity assays were performed by diluting a stock solution of substrate at least tenfold to a final concentration ≤0.1 Km into a solution containing enzyme or enzyme equilibrated with inhibitor. Times required to achieve equilibration between enzyme and inhibitor were determined in control experiments. Initial velocities of product formation in the absence (Vo) or presence of inhibitor (Vi) were measured. Assuming competitive inhibition, and that unity is negligible compared Km/[S], [I]/e, and [I]/e (where [S], [I], and e respectively represent the total concentrations, of substrate, inhibitor and enzyme), the equilibrium constant (Ki) for dissociation of the inhibitor from the enzyme can be obtained from the dependence of Vo/Vi on [I] shown in the following equation. Vo/Vi=1+[I]/Ki
Regarding `COC(=O)Nc1ccc2c(c1)NC(=O)CCCC[C@H](NC(=O)c1ccc(CN)c(C3CC3)c1)c1nc-2c[nH]1` [Example 1, Methyl [(7S)-7-({[4-(aminomethyl)-3-cyclopropylphenyl]carbonyl}amino)-2-oxo-1,2,3,4,5,6,7,9-octahydro-11,8-(azeno)-1,9-benzodiazacyclotridecin-14-yl]carbamate], the affinity corresponds to a Ki of 0.1 nM.

With `COC(=O)Nc1ccc2c(c1)NC(=O)CCCC[C@H](NC(=O)c1cnc(CN)c(C3CC3)c1)c1nc-2c[nH]1` [Example 2], the affinity, expressed as Ki, was 1.1 nM. For `COC(=O)Nc1ccc2c(c1)N[C@@H](C(=O)O)CCCC[C@H](NC(=O)c1ccc(CN)c(C3CC3)c1)c1nc-2c[nH]1` [Example 3] the value was 0.1 nM; for `COC(=O)Nc1ccc2c(c1)NC(=O)[C@@H](C)CCC[C@H](NC(=O)c1ccc(CN)c(C3CC3)c1)c1cc-2ccn1` [Example 4], 0.03 nM. On to `COC(=O)Nc1ccc2c(c1)NC(=O)CCCC[C@H](NC(=O)c1ccc(CN)c(C3CC3)c1)c1nc-2c(Cl)[nH]1` [Example 5], for which the Ki was found to be 0.05 nM.

Turning to `CC(C)COC(=O)Nc1ccc2c(c1)NC(=O)[C@@H](C)CCC[C@H](NC(=O)c1ccc(CN)c(C3CC3)c1)c1cc-2ccn1` [Example 6], affinity was put at a Ki of 0.2 nM. For the compound `C[C@H]1CCC[C@H](NC(=O)c2ccc(CN)c(C3CC3)c2)c2cc(ccn2)-c2ccc(NC(=O)OC3CCCC3)cc2NC1=O` [Example 7], the Ki stood at 0.3 nM. As for `COCCOC(=O)Nc1ccc2c(c1)NC(=O)[C@@H](C)CCC[C@H](NC(=O)c1ccc(CN)c(C3CC3)c1)c1cc-2ccn1` [Example 8], the figure is 0.1 nM.
